Assay results from US20170368082A1, “FORMULATIONS OF BRINCIDOFOVIR” (priority 2016, published 2017).
Marks after values point to notes of the source that are not given here.

Assay: 28-day intravenous infusion toxicity study with 14-day recovery
Format: in vivo, Sprague-Dawley CD rats
Conditions: for Testicular germ cell depletion, severity: terminal sacrifice
Description: Sprague-Dawley CD® rats (15/sex/group) were administered 0 (2× Sodium Phosphate Buffer Solution), 1, 4 or 15 mg/kg/dose brincidofovir twice per week via 2-hour intravenous infusion on a total of 9 occasions over 29 days. The dose rate was 10 mL/kg/hr for all dose groups. At the end of the treatment phase, up to 10 animals/sex/group were euthanized and necropsied. The remaining animals (up to 5 animals/sex/group) were held for a 14-day recovery phase in order to determine progression or reversibility of any brincidofovir-related effects. Satellite animals (up to 3/sex/group) were similarly dosed and serial blood samples were collected from each animal on Days 1 and 29 for toxicokinetic analysis of brincidofovir and the brincidofovir metabolite (Cidofovir, CDV). Parameters evaluated during the study were: viability, clinical observations, ophthalmology, body weights, food consumption, clinical pathology (termination of dosing and end of recovery), organ weights, macroscopic observations and microscopic pathology.
The test/control item was administered via 2 hours intravenous infusion twice weekly for a total of 9 individual doses over 29 days. Test/control item administration continued through the day prior to terminal necropsy. Recovery animals were held for a 14 day observation period after the last dose.
Animals in extremely poor health or in a possible moribund condition were identified for further monitoring and possible euthanasia.
Observations were made immediately and 2 hours after the completion of dosing for any signs of poor health or toxic or pharmacologic effects (e.g., abnormalities in general condition, appearance, activity, behavior, respiration, etc.).
Blood obtained via the orbital sinus (retrobulbar venous plexus) under light isoflurane anesthesia was used to analyze hematology, coagulation and clinical chemistry parameters for up to 10 toxicity animals/sex/group at the termination of dosing and up to 5 recovery animals/sex/group at the end of recovery. Animals were fasted overnight prior to each blood collection interval.
Necropsy was performed on up to 10 toxicity study animals/sex/group after animals had been treated for 29 days and on up to 5 toxicity study animals/sex/group after a 14 day treatment-free recovery period. Animals were fasted overnight prior to necropsy. Necropsy schedules were established to ensure that examination of animals of both sexes from each group were performed at similar times of the day throughout the necropsy periods.
Complete macroscopic examinations were performed on all animals. The macroscopic examination included examination of the external surface and all orifices; the external surfaces of the brain and spinal cord; the organs and tissues of the cranial, thoracic, abdominal and pelvic cavities and neck; and the remainder of the carcass for the presence of macroscopic morphologic abnormalities.
The tissues listed below were obtained from all animals and preserved. In addition, slides of the indicated tissues were prepared and examined microscopically. Any abnormalities not noted during macroscopic examinations which were seen during histology processing were recorded.
After fixation, the tissues and organs from all animals were routinely processed, embedded in paraffin, cut at a microtome setting of 4-7 microns, mounted on glass slides, stained with hematoxylin and eosin and examined by light microscopy. The bones were decalcified in Decalcifier II™.

[1] = females (2F), 1 mg/kg/dose, 29 day period, 11 tissues examined
[2] = females (3F), 4 mg/kg/dose, 29 day period, 10 tissues examined
[3] = females (4F), 15 mg/kg/dose, 29 day period, 10 tissues examined
[4] = females (4F), 15 mg/kg/dose, following 14-day recovery period, 5 tissues examined
[5] = males (2M), 1 mg/kg/dose, 29 day period, 10 tissues examined
[6] = males (2M), 1 mg/kg/dose, following 14-day recovery period, 5 tissues examined
[7] = males (3M), 4 mg/kg/dose twice weekly, 29 day period, statistically significant
[8] = males (3M), 4 mg/kg/dose, 29 day period, 10 tissues examined
[9] = males (3M), 4 mg/kg/dose, following 14-day recovery period, 5 tissues examined
[10] = males (3M), 4 mg/kg/dose, following 14-day recovery period, statistically significant
[11] = males (4M), 15 mg/kg/dose twice weekly, 29 day period, statistically significant
[12] = males (4M), 15 mg/kg/dose, 29 day period, 10 tissues examined
[13] = males (4M), 15 mg/kg/dose, following 14-day recovery period, 5 tissues examined
[14] = males (4M), 15 mg/kg/dose, following 14-day recovery period, statistically significant

CCCCCCCCCCCCCCCCOCCCOP(=O)(O)CO[C@H](CO)Cn1ccc(N)nc1=O [Brincidofovir]
mortality (1, 4 or 15 mg/kg/dose): no brincidofovir-related mortalities
Clinical observations, dosing phase (4 and 15 mg/kg/dose, both sexes): intermittent clinical signs
No-observed-adverse-effect level (NOAEL) (females): 4 mg/kg/dose
Decrease in food consumption vs concurrent controls (to) (females 15 mg/kg/dose, Week 3): −9.8%
Intestinal tract findings: Total Animals Represented [1]: 0
Skin findings: Total Animals Represented [1]: 0
Bone marrow findings: Total Animals Represented (females (2F), 1 mg/kg/dose, following 14-day recovery period, 4 tissues examined): 0
Intestinal tract findings: Total Animals Represented [2]: 9
Skin findings: Total Animals Represented [2]: 0
Small intestine: Necrosis, Epithelium, Crypts, Minimal (incidence) [2]: 9
Bone marrow findings: Total Animals Represented (females (3F), 4 mg/kg/dose, following 14-day recovery period, 5 tissues examined): 0
Intestinal tract findings: Total Animals Represented [3]: 9
Large intestine: Necrosis, Epithelium, glands, Minimal (incidence) [3]: 4
Skin findings: Total Animals Represented [3]: 10
Skin: Atrophy, Sebaceous Glands, Marked (incidence) [3]: 2
Skin: Atrophy, Sebaceous Glands, Moderate (incidence) [3]: 3
Skin: Atrophy, Sebaceous Glands, Slight (incidence) [3]: 5
Small intestine: Hyperplasia, Epithelium, Crypts, Minimal (incidence) [3]: 5
Small intestine: Necrosis, Epithelium, Crypts, Minimal (incidence) [3]: 3
Small intestine: Necrosis, Epithelium, Crypts, Moderate (incidence) [3]: 1
Small intestine: Necrosis, Epithelium, Crypts, Slight (incidence) [3]: 5
Bone marrow findings: Total Animals Represented [4]: 2
Bone marrow: Cellularity, Decreased, Minimal (incidence) [4]: 2
Incidence of bone marrow decreased cellularity after recovery (females, 15 mg/kg/dose): 2/5
Intestinal tract findings: Total Animals Represented [5]: 0
Male reproductive tract findings: Total Animals Represented [5]: 0
Skin findings: Total Animals Represented [5]: 0
Bone marrow findings: Total Animals Represented [6]: 0
Male reproductive tract findings: Total Animals Represented [6]: 0
Testes weight vs. body weight, % difference relative to controls (males (3M), 4 mg/kg/dose twice weekly, 29 day period): −3%
Testes absolute weight, % difference relative to controls [7]: −9^a %
Testes weight vs. brain weight, % difference relative to controls [7]: −9^a %
Intestinal tract findings: Total Animals Represented [8]: 9
Male reproductive tract findings: Total Animals Represented [8]: 10
Seminal Vesicles: Apoptosis, Epithelial, Minimal (incidence) [8]: 4
Skin findings: Total Animals Represented [8]: 0
Small intestine: Hyperplasia, Epithelium, Crypts, Minimal (incidence) [8]: 5
Small intestine: Necrosis, Epithelium, Crypts, Minimal (incidence) [8]: 8
Small intestine: Necrosis, Epithelium, Crypts, Slight (incidence) [8]: 1
Testes: Depletion, Germ Cell, Minimal (incidence) [8]: 6
Testes: Depletion, Germ Cell, Slight (incidence) [8]: 3
Bone marrow findings: Total Animals Represented [9]: 0
Male reproductive tract findings: Total Animals Represented [9]: 5
Testes: Depletion, Germ Cell, Minimal (incidence) [9]: 1
Testes: Depletion, Germ Cell, Slight (incidence) [9]: 4
Testes absolute weight, % difference relative to controls [10]: −21^a %
Testes weight vs. body weight, % difference relative to controls [10]: −26^a %
Testes weight vs. brain weight, % difference relative to controls [10]: −18^a %
Epididymides weight vs. body weight, % difference relative to controls (males (4M), 15 mg/kg/dose twice weekly, 29 day period): −6%
Epididymides absolute weight, % difference relative to controls [11]: −14^a %
Epididymides weight vs. brain weight, % difference relative to controls [11]: −13^a %
Testes absolute weight, % difference relative to controls [11]: −24^a %
Testes weight vs. body weight, % difference relative to controls [11]: −16^a %
Testes weight vs. brain weight, % difference relative to controls [11]: −22^a %
Epididymides: Cell Debris, Luminal, Minimal (incidence) [12]: 9
Intestinal tract findings: Total Animals Represented [12]: 10
Large intestine: Necrosis, Epithelium, glands, Minimal (incidence) [12]: 9
Male reproductive tract findings: Total Animals Represented [12]: 10
Seminal Vesicles: Apoptosis, Epithelial, Minimal (incidence) [12]: 8
Seminal Vesicles: Mitotic Figures, Epithelial, Minimal (incidence) [12]: 4
Skin findings: Total Animals Represented [12]: 10
Skin: Atrophy, Sebaceous Glands, Marked (incidence) [12]: 4
Skin: Atrophy, Sebaceous Glands, Moderate (incidence) [12]: 3
Skin: Atrophy, Sebaceous Glands, Slight (incidence) [12]: 3
Small intestine: Hyperplasia, Epithelium, Crypts, Minimal (incidence) [12]: 2
Small intestine: Necrosis, Epithelium, Crypts, Minimal (incidence) [12]: 2
Small intestine: Necrosis, Epithelium, Crypts, Slight (incidence) [12]: 8
Testes: Depletion, Germ Cell, Moderate (incidence) [12]: 5
Testes: Depletion, Germ Cell, Slight (incidence) [12]: 5
Bone marrow findings: Total Animals Represented [13]: 3
Bone marrow: Cellularity, Decreased, Slight (incidence) [13]: 3
Epididymides: Cell Debris, Luminal, Minimal (incidence) [13]: 5
Epididymides: Sperm, Reduced, Luminal, Marked (incidence) [13]: 4
Epididymides: Sperm, Reduced, Luminal, Severe (incidence) [13]: 1
Male reproductive tract findings: Total Animals Represented [13]: 5
Testes: Depletion, Germ Cell, Marked (incidence) [13]: 4
Testes: Depletion, Germ Cell, Moderate (incidence) [13]: 1
Testes absolute weight, % difference relative to controls [14]: −42^a %
Testes weight vs. body weight, % difference relative to controls [14]: −40^a %
Testes weight vs. brain weight, % difference relative to controls [14]: −41^a %
Sebaceous gland atrophy, severity (males and females 15 mg/kg/dose): slight to marked
Single cell necrosis of crypt epithelium in small intestine, severity (males and females ≧4 mg/kg/dose): minimal to moderate
Decrease in food consumption vs concurrent controls (to) (males ≧1 mg/kg/dose, Week 4): −16%
Testicular germ cell depletion, severity (males, 4 mg/kg/dose): minimal to slight
Incidence of bone marrow decreased cellularity after recovery (males, 15 mg/kg/dose): 3/5
Testicular germ cell depletion, severity (males, 15 mg/kg/dose): slight to moderate
No-observed-adverse-effect level (NOAEL) (males, twice weekly 2-h IV infusion): 1 mg/kg/dose
Diarrhea (rat, in vivo): none of the animals in the present study experienced diarrhea
Effects on ophthalmology, body weights, hematology, coagulation, clinical chemistry, urinalysis (rat, in vivo): no brincidofovir-related effects
Transaminase elevations (rat, in vivo): No transaminase elevations were observed
